From patent US20140170158A1, “COMPOSITIONS AND METHODS FOR TREATING OR PREVENTING LUNG DISEASES” (THE JOHNS HOPKINS UNIVERSITY, priority 2012, published 2014)
Entries after “also recorded” stand apart in the source; their conditions may differ.

Columns and labels:
CS-exposed lungs = experiment: CS-induced injury measures by immunohistochemistry: oxidative stress, inflammatory cells, proliferation; format: in vivo, mice
Description: (§1) Six- to eight-week-old AKR/J male mice were divided into 3 groups. The control group was kept in a filtered air environment, and the experimental groups were subjected to CS or CS plus losartan in drinking water. CS exposure was carried out (2 hours per day, 5 days per week) by burning 2R4F reference cigarettes (University of Kentucky, […], Ky., USA) using a smoking machine (Model TE-10; Teague Enterprises) for 6 to 7 weeks. The average concentration of total suspended particulates and carbon monoxide was 90 mg/m and 350 ppm, respectively, which was monitored on a routine basis.
(§2) The AT1 selective antagonist losartan (Merck Co.) was diluted into drinking water at concentrations of 3 mg/kg (low dose) and 30 mg/kg (high dose). Panselective TGF-β-neutralizing antibody (R&D Systems) was administered by intraperitoneal injection according to published protocol (70). Isotype-matched control antibody (R&D Systems) was administered to control mice as described above.
Tissue sections were deparaffinized and rehydrated in an ethanol series. Sections were blocked for non-specific binding with 3% normal serum from chicken and incubated with the primary antibodies for 1 hour at room temperature. For immunofluorescence, sections were then incubated with secondary antibodies at 1:200 for 30 minutes at room temperature (Molecular Probes). Sections were counterstained with 4′,6′-diamidinio-2-phenylindole (DAPI) and mounted with Vectashield hard set mounting medium (Vector Labs). Briefly, after incubation with the primary antibody overnight at 4° C., slides were washed with PBST, incubated with an appropriate biotinylated secondary antibody (Jackson ImmunoResearch Inc.), and developed by using ABC and DAB detection reagents (Vector Laboratories). […]

Akt, JNK, p38 = experiment: Immunoblotting of activated and total Akt, JNK and p38 in lung lysates; format: in vivo, mice; conditions: CS-exposed lungs, attenuated by CS
Description: as §1, §2
(§3) Whole lung lysates were extracted in M-Per buffer from Pierce. Protein concentrations were determined using the Bio-Rad Protein Assay. Aliquots of 30-50 μg protein were boiled and then loaded onto Tris-HCL gels and transferred electrophoretically to nitrocellulose membranes. Membranes were incubated with the primary antibody for 1 hour at room temperature. Detection was performed by the Pierce West Dura ECL Detection System. […]

[1] = tested on: alveolar epithelial apoptosis; experiment: TUNEL and active caspase-3 labeling in the airspace; format: in vivo; conditions: CS-exposed mice
Description: as §1, §2
(§4) Tissue sections were deparaffinized and rehydrated in an ethanol series. Sections were blocked for non-specific binding with 3% normal serum from chicken and incubated with the primary antibodies for 1 hour at room temperature. For immunofluorescence, sections were then incubated with secondary antibodies at 1:200 for 30 minutes at room temperature (Molecular Probes). […]

[2] = tested on: lung gene expression pathways; experiment: Expression profile analysis of whole lung RNA; format: in vivo, mice; conditions: 2 months CS plus losartan
Description: Six- to eight-week-old AKR/J male mice were divided into 3 groups. The control group was kept in a filtered air environment, and the experimental groups were subjected to CS or CS plus losartan in drinking water. CS exposure was carried out (2 hours per day, 5 days per week) by burning 2R4F reference cigarettes (University of Kentucky, […], Ky., USA) using a smoking machine (Model TE-10; Teague Enterprises) for 6 to 7 weeks. […] Panselective TGF-β-neutralizing antibody (R&D Systems) was administered by intraperitoneal injection according to published protocol (70). Isotype-matched control antibody (R&D Systems) was administered to control mice as described above. Total RNA was extracted from the designated murine lungs, six in each treatment group, using the Trizol Reagent method (Invitrogen, Carlsbad, Calif. 92008, cat. no. 15596-026). Additional purification was performed on RNAeasy columns (Qiagen, Valencia, Calif. 913555, cat. no. 74104). The quality of total RNA samples was assessed using an Agilent 2100 Bioanalyzer (Agilent Technologies, Palo Alto, Calif.). The six RNA samples from each time point were pooled into two groups comprised of three murine specimens. […] The hybridized biotinylated cRNA was detected with streptavidin-Cy3 and quantitated using Illumina's BeadStation 500GX Genetic Analysis Systems scanner. […]

[3] = tested on: chronic CS-exposed AKR/J mice; experiment: Morphometric analysis of airspace dimension and airway attachments in chronic CS-induced emphysema model; format: in vivo
Description: as §1, with “The control group was kept in a filtered air environment, and the experimental groups were subjected to CS or CS plus losartan in drinking water.” left out
[…] Panselective TGF-β-neutralizing antibody (R&D Systems) was administered by intraperitoneal injection according to published protocol (70). Isotype-matched control antibody (R&D Systems) was administered to control mice as described above.
Three to five mice of each genotype were studied at the noted ages. For histologic and morphometric analyses, mouse lungs were inflated at a pressure of 25 cm H2O and fixed with 4% PFA in low molecular weight agarose. […]
Mean linear intercept measurements were performed on H&E-stained sections taken at intervals throughout both lungs. […] Mean chord lengths and mean linear intercepts were assessed by automated morphometry with a macro-operation performed by Metamorph Imaging Software (Universal Imaging, Molecular Devices). Mean airway thickness was measured directly using microscope-captured images at ×40 magnification. […]

[4] = Body weight of CS- or RA-exposed mice; format: in vivo; conditions: for CS-induced weight loss: CS-exposed mice, two months treatment
Description: as §1, §2

[5] = tested on: small airways of chronic CS-exposed mice; experiment: Airway histology: wall thickness, Ki67, trichrome, αSMA; format: in vivo
Description: Six- to eight-week-old AKR/J male mice were divided into 3 groups. The control group was kept in a filtered air environment, and the experimental groups were subjected to CS or CS plus losartan in drinking water. […] The average concentration of total suspended particulates and carbon monoxide was 90 mg/m and 350 ppm, respectively, which was monitored on a routine basis.
as §2
Mean linear intercept measurements were performed on H&E-stained sections taken at intervals throughout both lungs. Slides were coded, captured by an observer, and masked for identity for the groups. Ten to fifteen images per slide were acquired at ×20 magnification and transferred to a computer screen. Mean chord lengths and mean linear intercepts were assessed by automated morphometry with a macro-operation performed by Metamorph Imaging Software (Universal Imaging, Molecular Devices). Mean airway thickness was measured directly using microscope-captured images at ×40 magnification. Hart's staining was performed per published protocol using either van Gieson or tartrazine counterstaining (71).
Tissue sections were deparaffinized and rehydrated in an ethanol series. Sections were blocked for non-specific binding with 3% normal serum from chicken and incubated with the primary antibodies for 1 hour at room temperature. For immunofluorescence, sections were then incubated with secondary antibodies at 1:200 for 30 minutes at room temperature (Molecular Probes). Sections were counterstained with 4′,6′-diamidinio-2-phenylindole (DAPI) and mounted with Vectashield hard set mounting medium (Vector Labs). Briefly, after incubation with the primary antibody overnight at 4° C., slides were washed with PBST, incubated with an appropriate biotinylated secondary antibody (Jackson ImmunoResearch Inc.), and developed by using ABC and DAB detection reagents (Vector Laboratories). Antibodies were used at the following concentrations: Ki67 (1:50; Santa Cruz Biotechnology Inc.), nitrotyrosine (Abcam), Mac3 (BD Biosciences), CD45R (Santa Cruz Biotechnology Inc.), psmad2 (Cell Signaling Technology), TUNEL (1:25; Abcam), JNK/pJNK (Cell Signaling Technology), Akt/pAkt (Cell Signaling Technology), LAP— TGF-β1 (R&D Systems), CTGF (Abcam), Angiotensin type 1 receptor (Santa Cruz Biotechnology Inc.), and active caspase-3 (Abcam).

MMP12 = experiment: Western blot analysis of MMP12 expression in lung lysates; format: in vivo; conditions: CS-exposed mice
Description: as §1, §2, §3

MMP9 = experiment: Zymography of lung extracts; format: in vivo; conditions: CS-exposed mice
Description: as §1, §2

elastin = experiment: Elastin localization by Hart's stain; format: in vivo; conditions: CS-exposed mice
Description: as §1, §2

active TGF-β = experiment: ELISA of active TGF-β in lung lysates of CS-exposed mice; format: in vivo; conditions: AKR/J and C57BL/6 mice, two weeks of CS exposure, concurrent treatment
Description: as §1, §2

TGF-β signaling (psmad2) = experiment: Immunohistochemical staining for psmad2, a marker of TGF-β signaling, in lungs; format: in vivo; conditions: chronic CS-exposed mice
Description: as §1, §2, §4

AT1 receptor = target: T1, AT1 receptor (Mus musculus, UniProt P29754); experiment: Immunohistochemistry for the AT1 receptor in murine lungs; format: in vivo, mice; conditions: 2 months CS
T1 construct: from tissue; host or cells: fixed lung sections of AKR/J mice
T1 sequence (P29754 1-359): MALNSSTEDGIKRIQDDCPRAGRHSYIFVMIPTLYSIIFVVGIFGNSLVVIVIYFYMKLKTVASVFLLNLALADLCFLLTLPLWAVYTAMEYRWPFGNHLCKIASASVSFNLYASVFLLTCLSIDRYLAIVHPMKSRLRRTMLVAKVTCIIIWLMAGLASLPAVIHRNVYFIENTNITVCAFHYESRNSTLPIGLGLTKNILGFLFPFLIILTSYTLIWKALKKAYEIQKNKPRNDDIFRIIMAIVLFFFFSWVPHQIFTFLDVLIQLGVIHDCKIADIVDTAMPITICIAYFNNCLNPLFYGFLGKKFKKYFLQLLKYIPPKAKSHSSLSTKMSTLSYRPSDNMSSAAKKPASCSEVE
Description: as §1, §2

[6] = tested on: chronic CS-exposed AKR/J mice; experiment: Measurement of mouse lung mechanics; format: in vivo
Description: as §1
as §2, with “above. […]” for “above.”
After being connected they were paralyzed with Succinylcholine (75 mg/kg) and ventilated with a tidal volume of 0.2 mL of 100% oxygen at a rate of 150 breathes/min, with a positive end expiratory pressure (PEEP) of 3 cm H2O. […] One minute later Rrs and Ers were measured (74). […] The expression levels of target genes were determined in triplicate from the standard curve and normalized to Gapdh mRNA level.

AT1 staining in the airspace walls (AT1 receptor): normalized
Structure (SMILES): CCCCc1nc(Cl)c(CO)n1Cc1ccc(-c2ccccc2-c2nn[nH]n2)cc1 [losartan]
inflammatory cell infiltration (alveolar macrophage and lymphocyte numbers) (CS-exposed lungs; AKR/J mice, CS-exposed lungs): reduced inflammatory cell infiltration
oxidative stress (nitrotyrosine and 8-deoxyguanine immunostaining) (CS-exposed lungs; AKR/J mice, CS-exposed lungs): normalized oxidative stress
airspace epithelial cell proliferation reduced by CS (CS-exposed lungs; CS-exposed mice): did not normalize
JNK and p38 activation (Akt, JNK, p38): only Akt activation was normalized
TUNEL labeling in the airspace [1]: attenuated
active caspase-3 labeling in the airspace [1]: attenuated
oxidoreductase, B cell receptor signaling, chemokine signaling, and cytokine receptor interaction pathways (induced with CS) [2]: repressed with losartan treatment
stress response and MAPK pathway genes (downregulated with CS) [2]: induced with losartan treatment
airspace dimension (mean linear intercept) ([3]; 2 months CS, concurrent treatment (losartan 0.6 or 1.2 g/l in drinking water; antibody 10 mg/kg/wk)): marked reduction in the airspace dimension; also recorded: attenuate destructive airspace enlargement
airway alveolar attachments, a measure of airspace destruction ([3]; CS-exposed): recovery with losartan treatment
CS-induced weight loss [4]: not improved
CS-induced weight loss ([4]; listed as Losartan): does not rescue CS-induced weight loss
body weight of RA-exposed mice ([4]; room air-exposed mice): did not alter body weight
airway epithelial thickening (airway mucosal thickness) ([5]; 2 months CS, small airways of similar size): normalized
airway epithelial proliferation (Ki67 staining) ([5]; CS-exposed mice): trend toward reduction
density and abundance of αSMA-producing smooth muscle cells surrounding the small airways ([5]; data not shown): not changed
peribronchiolar collagen deposition (trichrome) ([5]; mice exposed to 3 months of CS): normalized collagen deposition
MMP12 expression in the lungs (MMP12): normalized
MMP9 activation (MMP9): normalized
elastin fragmentation in the airspaces (elastin): improved with losartan treatment
active TGF-β in lung lysates by ELISA (active TGF-β): normalized TGF-β in both strains
TGF-β signaling (phosphorylated smad2 in alveolar and airway epithelium) (TGF-β signaling (psmad2)): normalized with losartan treatment; also recorded: inhibit chronic CS-induced TGF-β signaling in the lung
lung elastance [6]: normalized
lung size (total lung capacity) [6]: normalized
